Active and inactive are the calls of the source. The calls are words filed in the database; no cut-off is given here.

The subject of series [1] is SH-SY5Y. Description: Neuroprotective activity in human SH-SY5Y cells assessed as reduction in H2O2-induced cell death at 1 uM preincubated for 1 hr followed by H2O2 addition and measured after 4 hrs by MTT assay relative to control. In kind it is functional. Background: Formazan colour is commonly taken as a measure of viable cells.
The subject of series [2] is SH-SY5Y. Description: Neuroprotective activity in human SH-SY5Y cells assessed as reduction in H2O2-induced cell death at 10 uM preincubated for 1 hr followed by H2O2 addition and measured after 4 hrs by MTT assay. The class given is functional, cell-based.
The test system of series [3] is SH-SY5Y. As to the kind of experiment: Neuroprotective activity in human SH-SY5Y cells assessed as reduction in H2O2-induced cell death at 100 uM preincubated for 1 hr followed by H2O2 addition and measured after 4 hrs by MTT assay. In kind it is functional, cell-based.
For series [4], the system named is SH-SY5Y. As to the kind of experiment: Cytotoxicity against human SH-SY5Y cells at 100 uM. In kind it is cell-based.

In the case of `COc1c(O)c(C(C)=O)c(C)c2c(C)cccc12`, the outcome in the series with SH-SY5Y [1] was inactive. For the same compound, the result with SH-SY5Y [2] and with SH-SY5Y [3] was Active.
Regarding `COc1c2c(c(C)c3c(C)coc13)[C@@H](C)[C@@H]1O[C@@H]1[C@H]2O`, the result in the series on SH-SY5Y [1] was inactive. Besides, the result in the series on SH-SY5Y [2] and in the series on SH-SY5Y [3] was Active.
For `Cc1coc2c1[C@](C)(O)c1c(ccc(O)c1C)C2=O`, the outcome in the series on SH-SY5Y [1] and with SH-SY5Y [2] was Active. Further, the Activity entry in the series on SH-SY5Y [4] is recorded as “Toxic”.
For `C/C=C(/C)C(=O)OC[C@H]1c2c(c(OC)c3occ(C)c3c2C)C=C[C@H]1OC`, in the series with SH-SY5Y [1], the Activity is above 10%. The outcome in the series on SH-SY5Y [2] and with SH-SY5Y [3] was Active.
As for `Cc1c(C)c2c(c(C)c1O)CCC(C)(C(=O)O)O2` (stereo not given), the result in the series with SH-SY5Y [1] was inactive.
Regarding `COc1c2c(c(C)c3c(C)coc13)[C@@H](C)[C@@H](O)CC2`, the result in the series with SH-SY5Y [1] was inactive. Besides, the outcome in the series with SH-SY5Y [2] and in the series with SH-SY5Y [3] was Active.
As for `C/C=C(/C)C(=O)OC[C@@H]1c2c(c(OC)c3occ(C)c3c2C)C=C[C@@H]1O`, the Activity in the series on SH-SY5Y [1] is recorded as above 10%. Besides, the result in the series on SH-SY5Y [2] and in the series on SH-SY5Y [3] was Active.
`COc1c(O)c(C(C)=O)c(C)c2c1C=CC[C@@H]2C`: the outcome in the series on SH-SY5Y [1] was inactive. For the same compound, the result with SH-SY5Y [2] and with SH-SY5Y [3] was Active.
Take `COC[C@@]1(O)c2c(C)cccc2C(=O)c2occ(C)c21`: in the series with SH-SY5Y [1], the outcome was Active. For the same compound, the Activity result in the series with SH-SY5Y [4] is “Toxic”.
For the compound `CCOCc1c2c(C)cccc2c(OC)c2occ(C)c12`, the outcome in the series on SH-SY5Y [1] was inactive. Also, the outcome in the series on SH-SY5Y [2] and with SH-SY5Y [3] was Active.
As for `COc1c2c(c(C)c3c(C)coc13)[C@H](CO)[C@H](O)C=C2`, the Activity in the series with SH-SY5Y [1] is given as above 10%. Also, the outcome in the series on SH-SY5Y [2] and with SH-SY5Y [3] was Active.
For the compound `COCc1c2c(C)cccc2c(OC)c2occ(C)c12`, the Activity in the series with SH-SY5Y [1] was above 10%. Besides, the result in the series with SH-SY5Y [2] and with SH-SY5Y [3] was Active.
For `COc1c2cccc(C)c2c(C)c2c(C)coc12`, the Activity with SH-SY5Y [1] is given as above 10%. For the same compound, the outcome with SH-SY5Y [2] and in the series with SH-SY5Y [3] was Active.
For `COc1c2cccc(C)c2c(CO)c2c(C)coc12`, the result with SH-SY5Y [1] was inactive. Moreover, the outcome in the series with SH-SY5Y [2] and in the series with SH-SY5Y [3] was Active.
With `C/C=C(/C)C(=O)OCc1c(C(C)=O)c(O)c(OC)c2c1[C@@H](C)[C@@H](O)C=C2`, the outcome with SH-SY5Y [1] was inactive. Further, the result with SH-SY5Y [2] and with SH-SY5Y [3] was Active.
Take `COc1c(O)c(C(C)=O)c(C)c2c1C=C[C@H](O)[C@@H]2C`: in the series with SH-SY5Y [1], the result was inactive. In addition, the result with SH-SY5Y [2] and in the series on SH-SY5Y [3] was Active.
On to `Cc1cccc2c1C(=O)c1c(C)coc1C2=O`, for which the result in the series on SH-SY5Y [1] was inactive. For the same compound, the outcome in the series on SH-SY5Y [2] and with SH-SY5Y [3] was Active.
As to `COC[C@H]1c2c(c(OC)c3occ(C)c3c2C)C=C[C@H]1O`, the Activity in the series with SH-SY5Y [1] was above 10%. The outcome in the series on SH-SY5Y [2] and in the series with SH-SY5Y [3] was Active.
As for `COc1c2c(c(C)c3c(C)coc13)[C@@H](C)[C@@H](O)C=C2`, the Activity with SH-SY5Y [1] is above 10%. For the same compound, the result with SH-SY5Y [2] and with SH-SY5Y [3] was Active.
On to `COc1c2cccc(C)c2cc2c(C)coc12`, for which, in the series with SH-SY5Y [1], the result was inactive. For the same compound, the result in the series with SH-SY5Y [2] and in the series on SH-SY5Y [3] was Active.
`Cc1cccc2c1[C@@](C)(O)c1c(C)coc1C2=O`: the outcome in the series with SH-SY5Y [1] and with SH-SY5Y [2] was Active. For the same compound, the Activity entry in the series with SH-SY5Y [4] is recorded as “Toxic”.

The record behind these values is ChEMBL document CHEMBL4602671, “Modified Eremophilanes from Parasenecio hastatus and Their Neuroprotective Activities” (J Nat Prod, 2020).
